Results on two compounds are retold here after publication PMC9701179, “New tricyclic systems as photosensitizers towards triple negative breast cancer cells” (Archives of Pharmacal Research, 2022).

In series [1] the test system is MDA-MB-231 cells. Put plainly: Cell death induction (Hoechst / PI staining, confocal microscopy). The class given is cell-based, human. The note with it: MDA-MB-231, IC50 doses, 24 h. The procedure:
MDA-MB-231 cells were seeded into 8-well tissue-culture slides (BD Falcon, Bedford, MA, USA) at 5 × 10^4 cells/well (0.8 cm^2). After 24 h, the cells were washed twice with PBS and, following 24 h of treatment with IC50 doses of the tested compound, cells were stained for 5 min with 10 µg/mL of Hoechst 33258 (20-(4-hydroxyphenyl)-5-(4-methyl-1-piperazinyl)-2,50-bi-1H-benzimidazole trihydrochloride hydrate, Sigma-Aldrich, St.Louis, MI, USA) or propidium iodide (PI, Sigma-Aldrich, St.Louis, MI, USA) in PBS. Samples were examined at × 5 and × 40 magnification in a Zeiss LSM 800 confocal microscope using the Zeiss ZEN 2.3 software system.
Fig. 5 Effects on mitochondrial membrane potential (A) and cell death induction (B) in human breast MDA-MB-231 cancer cells. A Cells were treated with 7h and 8e and stained with TMRM (10 nM). Fluorescence was estimated at 490 nm (excitation) and 590 nm (emission). Data are the means of five independent experiments. Error bars indicate S.D. * P < 0.05. B Cells were treated with concentrations of 7h and 8e equal to IC50 for 24 h and stained with the fluorescent dyes Hoechst 33342 and PI
Loss of mitochondrial transmembrane potential is a crucial step in the activation of intrinsic apoptotic cell death. […] MDA-MB-231 cells were treated with IC50 doses of tested compounds and apoptotic cell death induction was confirmed through a Hoechst 33342 staining assay.

A short description of series [2]: UVA photostability (UV-Vis spectra in PBS). The series is classed as physicochemical. As to conditions: for Stability under UVA irradiation (UV-Vis spectra): 2.2 × 10^−5 M, increasing UVA doses 0–20 J/cm^2; for Photodegradation at the light dose of the cytotoxic experiments: UVA 2 J/cm^2, decrease of absorbance of main UV-Vis peaks (data not shown). As to the method:
Samples containing each compound (2.2 × 10^− 5 M) dissolved in PBS (0.04 M) were irradiated with increasing UVA doses from 0 to 20 J/cm^2 ([…], 5, 10, 15 and 20 J/cm^2), and their absorption spectrum was measured, with a Cary 50 Scan UV–Visible Spectrophotometer.
The most significant 7h and 8e pyridone derivatives were tested for their stability under UVA irradiation. […] Moreover, isosbestic points were visible, indicating the formation of one or more new stable species in equilibrium with the intact dark compound.
Fig. 6 UV–Vis Absorption spectra of 7h (left) and 8e (right) in PBS irradiated under 0, 2, 5, 10, 15 and 20 J/cm^2 with UVA light. 0 J/cm^2, red spectrum; 20 J/cm^2, light green spectrum

As to `CCOC(=O)c1ccc2n1CCc1cc(S(=O)(=O)c3ccccc3)c(OC)nc1-2` [Compound 7h, Ethyl 3-(benzenesulfonyl)-2-methoxy-5,6-dihydropyrrolo[1,2-h][1,7]naphthyridine-8-carboxylate], in series [1], the “Apoptotic cell death induction (Hoechst 33342 staining)” value is recorded as “positive to Hoechst 33342 staining” and the “Necrosis induction (PI staining)” value is reported as “poor stained with PI”. Besides, in series [2], the “Stability under UVA irradiation (UV-Vis spectra)” value was “very unstable under light” and the “Photodegradation at the light dose of the cytotoxic experiments” value is “photodegradation was very weak”.
`CCOC(=O)c1ccc2n1CCCc1cc(S(=O)(=O)c3ccccc3)c(OC)nc1-2` [Compound 8e, Ethyl 3-(benzenesulfonyl)-2-methoxy-6,7-dihydro-5H-pyrido[2,3-c]pyrrolo[1,2-a]azepine-9-carboxylate]: in series [1], the “Apoptotic cell death induction (Hoechst 33342 staining)” value is given as “positive to Hoechst 33342 staining” and the “Necrosis induction (PI staining)” value is listed as “poor stained with PI”. In addition, in series [2], the “Stability under UVA irradiation (UV-Vis spectra)” value is “very unstable under light” and the “Photodegradation at the light dose of the cytotoxic experiments” value is given as “photodegradation was very weak”.
